Measurements: ChEMBL document CHEMBL1921717, “Benzothiazole-containing hydroxamic acids as histone deacetylase inhibitors and antitumor agents” (Bioorg Med Chem Lett, 2011)
Converted amounts (≈) assume the structure as drawn. The source made the active and inactive calls. The rule behind the calls is not given here.

What was measured:
[1] = test system: ASPC1; test: Cytotoxicity against human AsPC1 cells; format: functional, cell-based
[2] = test system: PC-3; test: Cytotoxicity against human PC3 cells; format: functional, cell-based
[3] = test system: NCI-H460; test: Cytotoxicity against human NCI-H460 cells; format: functional, cell-based
[4] = molecular target: Histone deacetylase 4 (Homo sapiens) (UniProt P56524); test: Inhibition of HDAC4 in human SW620 cells assessed as increase in histone H3 acetylation at 1 ug/ml after 24 hrs by Western blot analysis; format: cell-based; conditions: SW-620
[5] = molecular target: Histone deacetylase 4 (Homo sapiens) (UniProt P56524); test: Inhibition of HDAC4 in human HL60 cells assessed as increase in histone H4 acetylation at 1 ug/ml after 24 hrs by Western blot analysis; format: cell-based; conditions: HL-60
[6] = test system: SW-620; test: Cytotoxicity against human SW620 cells; format: functional, cell-based
[7] = molecular target: Histone deacetylase 3 (Homo sapiens) (UniProt O15379); test: Inhibition of HDAC3 in human SW620 cells assessed as increase in histone H3 acetylation at 1 ug/ml after 24 hrs by Western blot analysis; format: cell-based; conditions: SW-620
[8] = molecular target: Histone deacetylase 3 (Homo sapiens) (UniProt O15379); test: Inhibition of HDAC3 in human HL60 cells assessed as increase in histone H4 acetylation at 1 ug/ml after 24 hrs by Western blot analysis; format: cell-based; conditions: HL-60
[9] = test system: MCF7; test: Cytotoxicity against human MCF7 cells; format: functional, cell-based

Chain of Histone deacetylase 3 (Homo sapiens) (O15379 whole entry): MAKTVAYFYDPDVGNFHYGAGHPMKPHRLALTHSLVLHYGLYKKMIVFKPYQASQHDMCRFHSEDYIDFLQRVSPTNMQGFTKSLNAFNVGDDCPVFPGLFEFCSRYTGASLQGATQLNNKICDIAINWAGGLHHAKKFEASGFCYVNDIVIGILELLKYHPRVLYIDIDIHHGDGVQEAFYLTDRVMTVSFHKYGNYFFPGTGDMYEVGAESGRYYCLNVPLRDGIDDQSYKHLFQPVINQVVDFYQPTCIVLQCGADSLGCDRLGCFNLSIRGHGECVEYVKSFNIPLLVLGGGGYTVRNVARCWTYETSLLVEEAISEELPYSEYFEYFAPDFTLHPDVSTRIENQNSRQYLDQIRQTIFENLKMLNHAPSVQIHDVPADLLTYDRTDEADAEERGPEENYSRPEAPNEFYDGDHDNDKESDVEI
Chain of Histone deacetylase 4 (Homo sapiens) (P56524 whole entry): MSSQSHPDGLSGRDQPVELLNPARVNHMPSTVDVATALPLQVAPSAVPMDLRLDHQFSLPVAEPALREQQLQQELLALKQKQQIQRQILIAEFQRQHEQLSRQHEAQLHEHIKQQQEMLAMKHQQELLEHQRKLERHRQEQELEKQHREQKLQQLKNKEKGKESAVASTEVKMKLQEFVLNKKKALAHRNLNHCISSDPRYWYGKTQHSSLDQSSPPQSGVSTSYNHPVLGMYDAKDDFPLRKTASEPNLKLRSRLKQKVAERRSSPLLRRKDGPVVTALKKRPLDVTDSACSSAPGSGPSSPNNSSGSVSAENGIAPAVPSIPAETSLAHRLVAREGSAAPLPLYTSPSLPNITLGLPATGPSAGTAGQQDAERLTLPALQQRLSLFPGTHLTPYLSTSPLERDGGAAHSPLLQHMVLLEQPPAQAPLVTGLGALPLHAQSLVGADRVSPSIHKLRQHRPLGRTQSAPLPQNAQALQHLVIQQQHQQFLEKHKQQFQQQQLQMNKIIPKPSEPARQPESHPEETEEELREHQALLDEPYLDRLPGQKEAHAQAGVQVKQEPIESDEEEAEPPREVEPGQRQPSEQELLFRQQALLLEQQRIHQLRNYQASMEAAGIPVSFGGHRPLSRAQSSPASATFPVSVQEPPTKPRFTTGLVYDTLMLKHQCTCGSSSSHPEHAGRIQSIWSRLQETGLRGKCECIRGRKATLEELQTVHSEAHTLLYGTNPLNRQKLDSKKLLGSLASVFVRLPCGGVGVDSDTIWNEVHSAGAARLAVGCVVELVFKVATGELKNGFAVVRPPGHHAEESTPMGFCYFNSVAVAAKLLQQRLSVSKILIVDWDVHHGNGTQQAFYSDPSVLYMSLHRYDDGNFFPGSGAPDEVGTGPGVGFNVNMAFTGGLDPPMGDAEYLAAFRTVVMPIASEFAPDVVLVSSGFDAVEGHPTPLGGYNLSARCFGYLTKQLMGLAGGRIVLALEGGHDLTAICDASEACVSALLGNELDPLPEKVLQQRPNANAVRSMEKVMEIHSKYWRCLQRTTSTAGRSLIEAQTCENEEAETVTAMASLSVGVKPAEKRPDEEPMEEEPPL

With `CS(=O)(=O)c1ccc2nc(NC(=O)CCCCCCC(=O)NO)sc2c1` the IC50 [1] was 13.5 µg/mL (≈ 33.8 µM), the IC50 [2] was 5.69 µg/mL (≈ 14.2 µM) and the IC50 [3] was 6.54 µg/mL (≈ 16.4 µM). The inhibition [4] was “inactive”, the inhibition [5] was “inactive” and the IC50 [6] was 5.42 µg/mL (≈ 13.6 µM). The inhibition [7] was “inactive”, the inhibition [8] was “inactive” and the IC50 [9] was 15.3 µg/mL (≈ 38.4 µM).
For `COc1ccc2nc(NC(=O)CCCCC(=O)NO)sc2c1`, the IC50 [1] was 23.9 µg/mL (≈ 74 µM), the IC50 [2] was 15.3 µg/mL (≈ 47.3 µM) and the IC50 [3] was 21.4 µg/mL (≈ 66.2 µM). The inhibition [4] was “inactive”, the inhibition [5] was “inactive” and the IC50 [6] was 9.07 µg/mL (≈ 28 µM). The inhibition [7] was “inactive”, the inhibition [8] was “inactive” and the IC50 [9] was 5.91 µg/mL (≈ 18.3 µM).
For `O=C(CCCCC(=O)Nc1nc2ccc([N+](=O)[O-])cc2s1)NO`, the IC50 [1] was > 30 µg/mL, the IC50 [2] was > 30 µg/mL and the IC50 [3] was > 30 µg/mL. For the same compound, the inhibition [4] was “inactive”, the inhibition [5] was “inactive” and the IC50 [6] was > 30 µg/mL. For the same compound, the inhibition [7] was “inactive”, the inhibition [8] was “inactive” and the IC50 [9] was > 30 µg/mL.
`O=C(CCCCCCC(=O)Nc1ccccc1)NO` [VORINOSTAT] gave an IC50 [2] of 0.94 µg/mL (≈ 3.56 µM).
Work on `O=C(CCCCCCC(=O)Nc1nc2ccccc2s1)NO` yielded an IC50 [1] of 5.69 µg/mL (≈ 17.7 µM), an IC50 [2] of 5.44 µg/mL (≈ 16.9 µM) and an IC50 [3] of 5.71 µg/mL (≈ 17.8 µM). For the same compound, the inhibition [4] was “Active”, the inhibition [5] was “Active” and the IC50 [6] was 4.01 µg/mL (≈ 12.5 µM). For the same compound, the inhibition [7] was “Active”, the inhibition [8] was “Active” and the IC50 [9] was 6.61 µg/mL (≈ 20.6 µM).
`O=C(CCCCCCC(=O)Nc1nc2ccc([N+](=O)[O-])cc2s1)NO` was tested, and the IC50 [1] was 1.65 µg/mL (≈ 4.5 µM), the IC50 [2] was 1.28 µg/mL (≈ 3.49 µM) and the IC50 [3] was 1.9 µg/mL (≈ 5.19 µM). The inhibition [4] was “Active”, the inhibition [5] was “Active” and the IC50 [6] was 0.29 µg/mL (≈ 0.791 µM). For the same compound, the inhibition [7] was “Active”, the inhibition [8] was “Active” and the IC50 [9] was 3.83 µg/mL (≈ 10.5 µM).
`O=C(CCCCC(=O)Nc1nc2ccccc2s1)NO` gave an IC50 [1] of 10.2 µg/mL (≈ 34.7 µM), an IC50 [2] of 12.5 µg/mL (≈ 42.6 µM) and an IC50 [3] of 14.4 µg/mL (≈ 49.1 µM). For the same compound, the inhibition [4] was “inactive”, the inhibition [5] was “inactive” and the IC50 [6] was 7.85 µg/mL (≈ 26.8 µM). For the same compound, the inhibition [7] was “inactive”, the inhibition [8] was “inactive” and the IC50 [9] was 4.02 µg/mL (≈ 13.7 µM).
For `CS(=O)(=O)c1ccc2nc(NC(=O)CCCCC(=O)NO)sc2c1`, the IC50 [1] was > 30 µg/mL, the IC50 [2] was > 30 µg/mL and the IC50 [3] was > 30 µg/mL. The inhibition [4] was “inactive”, the inhibition [5] was “inactive” and the IC50 [6] was > 30 µg/mL. The inhibition [7] was “inactive”, the inhibition [8] was “inactive” and the IC50 [9] was > 30 µg/mL.
Work on `Cc1ccc2nc(NC(=O)CCCCCCC(=O)NO)sc2c1` yielded an IC50 [1] of 0.54 µg/mL (≈ 1.61 µM), an IC50 [2] of 0.53 µg/mL (≈ 1.58 µM) and an IC50 [3] of 0.84 µg/mL (≈ 2.5 µM). The inhibition [4] was “Active”, the inhibition [5] was “Active” and the IC50 [6] was 0.56 µg/mL (≈ 1.67 µM). For the same compound, the inhibition [7] was “Active”, the inhibition [8] was “Active” and the IC50 [9] was 1.6 µg/mL (≈ 4.77 µM).
`COc1ccc2nc(NC(=O)CCCCCCC(=O)NO)sc2c1` showed an IC50 [1] of 0.79 µg/mL (≈ 2.25 µM), an IC50 [2] of 1.56 µg/mL (≈ 4.44 µM) and an IC50 [3] of 1.25 µg/mL (≈ 3.56 µM). The inhibition [4] was “Active”, the inhibition [5] was “Active” and the IC50 [6] was 0.96 µg/mL (≈ 2.73 µM). For the same compound, the inhibition [7] was “Active”, the inhibition [8] was “Active” and the IC50 [9] was 1.85 µg/mL (≈ 5.26 µM).
Work on `CCOc1ccc2nc(NC(=O)CCCCC(=O)NO)sc2c1` yielded an IC50 [1] of 16.7 µg/mL (≈ 49.5 µM), an IC50 [2] of 6.69 µg/mL (≈ 19.8 µM) and an IC50 [3] of 7.96 µg/mL (≈ 23.6 µM). The inhibition [4] was “inactive”, the inhibition [5] was “inactive” and the IC50 [6] was 9.26 µg/mL (≈ 27.4 µM). For the same compound, the inhibition [7] was “inactive”, the inhibition [8] was “inactive” and the IC50 [9] was 8.72 µg/mL (≈ 25.8 µM).
`CCOc1ccc2nc(NC(=O)CCCCCCC(=O)NO)sc2c1` was tested, and the IC50 [1] was 9.88 µg/mL (≈ 27 µM), the IC50 [2] was 16.9 µg/mL (≈ 46.2 µM) and the IC50 [3] was 6.58 µg/mL (≈ 18 µM). The inhibition [4] was “inactive”, the inhibition [5] was “inactive” and the IC50 [6] was 10.4 µg/mL (≈ 28.5 µM). For the same compound, the inhibition [7] was “inactive”, the inhibition [8] was “inactive” and the IC50 [9] was 11.6 µg/mL (≈ 31.8 µM).
For `Cc1ccc2nc(NC(=O)CCCCC(=O)NO)sc2c1`, the IC50 [1] was 13.3 µg/mL (≈ 43.4 µM), the IC50 [2] was 6.23 µg/mL (≈ 20.3 µM) and the IC50 [3] was 11 µg/mL (≈ 35.7 µM). For the same compound, the inhibition [4] was “inactive”, the inhibition [5] was “inactive” and the IC50 [6] was 4.69 µg/mL (≈ 15.3 µM). For the same compound, the inhibition [7] was “inactive”, the inhibition [8] was “inactive” and the IC50 [9] was 4.27 µg/mL (≈ 13.9 µM).
